Experimental data as given in patent US20250318529A1, “METHOD FOR MOSQUITO CONTROL” (SYNGENTA CROP PROTECTION AG, priority 2022, published 2025).

Tests used:
Assay in all cases: CDC bottle bioassay, adult female mosquitoes
Anopheles stephensi = assay type: in vivo; details: pyrethroid Susceptible
Protocol: (§1) Examples B1-B3: Bottle Assay Based on the Guideline for Evaluating Insecticide Resistance in Vectors Using the CDC Bottle Bioassay
(§2) 1 ml of acetone containing a test compound at a defined concentration, and 1500 ppm Mero (Bayer Crop Science) was added to a 250 ml glass bottle, the bottle was placed on a rolling table to coat the inner surfaces as the solvent evaporated. Once dry, approximately twenty five non-blood fed adult female mosquitoes of the appropriate species and strains (each two or three days old) were aspirated from the stock culture and gently blown into the exposure bottle. The lid of the bottle was replaced, and the bottle placed upright out of direct sun light under standard culture conditions, nominally 28° C. and 60-80% relative humidity.
(§3) A stopwatch was started, and the assessment of the knock-down were made after 60 minutes. A mosquito was said to be knocked down if it was unable to stand, following the CDC definition.
(§4) After one hour the mosquitoes were carefully removed from the bottle with an aspirator and placed in a recovery cup. The mosquitoes were supplied with a 10% sucrose solution on a cotton wool bung, and stored under culture conditions. Assessments of the mortality were made after 24 and 48 hours.
(§5) Each treatment was replicated a minimum of three times, with the mean knockdown or mortality recorded. In each study, a set of bottles was infested with a known insecticide susceptible strain of mosquitoes from the same genera as the resistant strains.

An. gambiae KisKDR = assay type: in vivo, Anopheles gambiae; details: pyrethroid Resistant
Protocol: as §1, §2, §3, §4, §5

An. gambiae M'Bé = assay type: in vivo, Anopheles gambiae; details: pyrethroid Resistant
Protocol: as §1, §2, §3, §4, §5

An. gambiae Tiassale = assay type: in vivo, Anopheles gambiae; details: pyrethroid Resistant
Protocol: as §1, §2, §3, §4, §5

An. gambiae Kisumu = assay type: in vivo, Anopheles gambiae; details: pyrethroid Susceptible
Protocol: as §1
[…] Once dry, approximately twenty five non-blood fed adult female mosquitoes of the appropriate species and strains (each two or three days old) were aspirated from the stock culture and gently blown into the exposure bottle. The lid of the bottle was replaced, and the bottle placed upright out of direct sun light under standard culture conditions, nominally 28° C. and 60-80% relative humidity.
as §3, §4, §5

[1] = Table B1, 25 μg/bottle + 1.5 mg Mero
[2] = Table B1, 50 μg/bottle + 1.5 mg Mero
[3] = Table B1, 250 μg/bottle + 1.5 mg Mero
[4] = Table B2, 50 μg/bottle + 1.5 mg Mero
[5] = Table B2, 250 μg/bottle + 1.5 mg Mero
[6] = Table B3, 25 μg/bottle + 1.5 mg Mero
[7] = Table B3, 50 μg/bottle + 1.5 mg Mero
[8] = Table B3, 250 μg/bottle + 1.5 mg Mero

SMILES: CC1(C)C(C=C(Cl)Cl)C1C(=O)OCc1cccc(Oc2ccccc2)c1 (stereo not shown) [Permethrin, reference compound]
- Mean % mortality 60 minutes (Anopheles stephensi; Table B1, 20 μg/bottle): 100%
- Mean % mortality 24 hours (Anopheles stephensi; Table B1, 20 μg/bottle): 100%
- Mean % mortality 60 minutes (An. gambiae KisKDR; Table B2, 20 μg/bottle): 100%
- Mean % mortality 24 hours (An. gambiae KisKDR; Table B2, 20 μg/bottle): 82.1%
- Mean % mortality 60 minutes (An. gambiae M'Bé; Table B2, 20 μg/bottle): 12.5%
- Mean % mortality 24 hours (An. gambiae M'Bé; Table B2, 20 μg/bottle): 13.9%
- Mean % mortality 60 minutes (An. gambiae Tiassale; Table B1, 20 μg/bottle): 45.6%
- Mean % mortality 24 hours (An. gambiae Tiassale; Table B1, 20 μg/bottle): 80%
- Mean % mortality 60 minutes (An. gambiae Tiassale; Table B3, 20 μg/bottle): 99.1%
- Mean % mortality 24 hours (An. gambiae Tiassale; Table B3, 20 μg/bottle): 91.7%
- Mean % mortality 60 minutes (An. gambiae Kisumu; Table B1, 20 μg/bottle): 100%
- Mean % mortality 24 hours (An. gambiae Kisumu; Table B1, 20 μg/bottle): 100%
- Mean % mortality 60 minutes (An. gambiae Kisumu; Table B2, 20 μg/bottle): 100%
- Mean % mortality 24 hours (An. gambiae Kisumu; Table B2, 20 μg/bottle): 100%
- Mean % mortality 60 minutes (An. gambiae Kisumu; Table B3, 20 μg/bottle): 100%
- Mean % mortality 24 hours (An. gambiae Kisumu; Table B3, 20 μg/bottle): 100%

SMILES: CCN1OCC(NC(=O)c2ccc(C3=NOC(c4cc(Cl)c(F)c(Cl)c4)(C(F)(F)F)C3)cc2C)C1=O (stereo not shown) [Isocycloseram]
- Mean % mortality 60 minutes (Anopheles stephensi; [1]): 12%
- Mean % mortality 24 hours (Anopheles stephensi; [1]): 70.4%
- Mean % mortality 60 minutes (Anopheles stephensi; [2]): 60.8%
- Mean % mortality 24 hours (Anopheles stephensi; [2]): 98.4%
- Mean % mortality 60 minutes (Anopheles stephensi; [3]): 79.2%
- Mean % mortality 24 hours (Anopheles stephensi; [3]): 100%
- Mean % mortality 60 minutes (An. gambiae KisKDR; [4]): 86.7%
- Mean % mortality 24 hours (An. gambiae KisKDR; [4]): 100%
- Mean % mortality 60 minutes (An. gambiae KisKDR; [5]): 100%
- Mean % mortality 24 hours (An. gambiae KisKDR; [5]): 100%
- Mean % mortality 60 minutes (An. gambiae M'Bé; [4]): 37.8%
- Mean % mortality 24 hours (An. gambiae M'Bé; [4]): 70.3%
- Mean % mortality 60 minutes (An. gambiae M'Bé; [5]): 89.3%
- Mean % mortality 24 hours (An. gambiae M'Bé; [5]): 100%
- Mean % mortality 60 minutes (An. gambiae Tiassale; [1]): 38.4%
- Mean % mortality 24 hours (An. gambiae Tiassale; [1]): 89.6%
- Mean % mortality 60 minutes (An. gambiae Tiassale; [2]): 84%
- Mean % mortality 24 hours (An. gambiae Tiassale; [2]): 100%
- Mean % mortality 60 minutes (An. gambiae Tiassale; [3]): 98.4%
- Mean % mortality 24 hours (An. gambiae Tiassale; [3]): 100%
- Mean % mortality 60 minutes (An. gambiae Tiassale; [6]): 96.9%
- Mean % mortality 24 hours (An. gambiae Tiassale; [6]): 100%
- Mean % mortality 60 minutes (An. gambiae Tiassale; [7]): 99.2%
- Mean % mortality 24 hours (An. gambiae Tiassale; [7]): 100%
- Mean % mortality 60 minutes (An. gambiae Tiassale; [8]): 99.1%
- Mean % mortality 24 hours (An. gambiae Tiassale; [8]): 100%
- Mean % mortality 60 minutes (An. gambiae Kisumu; [1]): 56.8%
- Mean % mortality 24 hours (An. gambiae Kisumu; [1]): 89.6%
- Mean % mortality 60 minutes (An. gambiae Kisumu; [2]): 88.8%
- Mean % mortality 24 hours (An. gambiae Kisumu; [2]): 100%
- Mean % mortality 60 minutes (An. gambiae Kisumu; [3]): 99.2%
- Mean % mortality 24 hours (An. gambiae Kisumu; [3]): 100%
- Mean % mortality 60 minutes (An. gambiae Kisumu; [4]): 80.77%
- Mean % mortality 24 hours (An. gambiae Kisumu; [4]): 100%
- Mean % mortality 60 minutes (An. gambiae Kisumu; [5]): 80.77%
- Mean % mortality 24 hours (An. gambiae Kisumu; [5]): 100%
- Mean % mortality 60 minutes (An. gambiae Kisumu; [6]): 98.8%
- Mean % mortality 24 hours (An. gambiae Kisumu; [6]): 100%
- Mean % mortality 60 minutes (An. gambiae Kisumu; [7]): 96.4%
- Mean % mortality 24 hours (An. gambiae Kisumu; [7]): 100%
- Mean % mortality 60 minutes (An. gambiae Kisumu; [8]): 99.2%
- Mean % mortality 24 hours (An. gambiae Kisumu; [8]): 100%
